Source: PMC7811140 (iScience, 2020)
Entries after “also recorded” stand apart in the source; their conditions may differ.

Columns and labels:
[1] = molecular target: T1, KDM4B (Homo sapiens, UniProt O94953); assay: biochemical; conditions: for inhibition at 15 µM: read-out: %Inhibition of KDM4B; for KDM4B inhibitory activity (in words): Figure S2; for %Inhibition of KDM4B: at 15 μM, screening
T1 sequence (O94953 1-348): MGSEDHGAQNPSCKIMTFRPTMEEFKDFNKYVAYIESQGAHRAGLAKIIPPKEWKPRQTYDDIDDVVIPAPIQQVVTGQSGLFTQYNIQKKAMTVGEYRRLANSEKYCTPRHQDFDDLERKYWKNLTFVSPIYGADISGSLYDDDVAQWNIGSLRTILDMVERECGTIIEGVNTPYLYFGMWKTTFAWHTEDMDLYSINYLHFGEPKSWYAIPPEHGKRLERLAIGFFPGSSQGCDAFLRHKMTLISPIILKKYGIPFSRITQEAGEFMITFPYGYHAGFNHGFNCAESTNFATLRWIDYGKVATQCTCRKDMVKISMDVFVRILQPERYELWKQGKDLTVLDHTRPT

[2] = system: KDM4 substrates H3K9me3 and H3K36me3; assay: Western blot of H3K9me3 and H3K36me3 in Rh30 cells; type: cell-based; conditions: 24 hr
[3] = molecular target: KDM5A (Homo sapiens, UniProt P29375); assay: ALPHA Screen demethylation assay; type: biochemical; conditions: IC50 (μM) KDM5A
[4] = system: PAX3-FOXO1; assay: Western blot of PAX3-FOXO1 in Rh30 cells; type: cell-based; conditions: 24 hr
[5] = system: H3K9me3 and H3K36me3 peaks; assay: ChIP-seq of H3K9me3 and H3K36me3 in Rh30 cells; type: cell-based, human; conditions: 1μM, 24 hr
[6] = molecular target: T2, KDM4B (Homo sapiens, UniProt O94953); assay: Western blot of histone marks in 293T cells expressing KDM4B; type: cell-based; conditions: treated 24 hours
T2 sequence (O94953 1-1096): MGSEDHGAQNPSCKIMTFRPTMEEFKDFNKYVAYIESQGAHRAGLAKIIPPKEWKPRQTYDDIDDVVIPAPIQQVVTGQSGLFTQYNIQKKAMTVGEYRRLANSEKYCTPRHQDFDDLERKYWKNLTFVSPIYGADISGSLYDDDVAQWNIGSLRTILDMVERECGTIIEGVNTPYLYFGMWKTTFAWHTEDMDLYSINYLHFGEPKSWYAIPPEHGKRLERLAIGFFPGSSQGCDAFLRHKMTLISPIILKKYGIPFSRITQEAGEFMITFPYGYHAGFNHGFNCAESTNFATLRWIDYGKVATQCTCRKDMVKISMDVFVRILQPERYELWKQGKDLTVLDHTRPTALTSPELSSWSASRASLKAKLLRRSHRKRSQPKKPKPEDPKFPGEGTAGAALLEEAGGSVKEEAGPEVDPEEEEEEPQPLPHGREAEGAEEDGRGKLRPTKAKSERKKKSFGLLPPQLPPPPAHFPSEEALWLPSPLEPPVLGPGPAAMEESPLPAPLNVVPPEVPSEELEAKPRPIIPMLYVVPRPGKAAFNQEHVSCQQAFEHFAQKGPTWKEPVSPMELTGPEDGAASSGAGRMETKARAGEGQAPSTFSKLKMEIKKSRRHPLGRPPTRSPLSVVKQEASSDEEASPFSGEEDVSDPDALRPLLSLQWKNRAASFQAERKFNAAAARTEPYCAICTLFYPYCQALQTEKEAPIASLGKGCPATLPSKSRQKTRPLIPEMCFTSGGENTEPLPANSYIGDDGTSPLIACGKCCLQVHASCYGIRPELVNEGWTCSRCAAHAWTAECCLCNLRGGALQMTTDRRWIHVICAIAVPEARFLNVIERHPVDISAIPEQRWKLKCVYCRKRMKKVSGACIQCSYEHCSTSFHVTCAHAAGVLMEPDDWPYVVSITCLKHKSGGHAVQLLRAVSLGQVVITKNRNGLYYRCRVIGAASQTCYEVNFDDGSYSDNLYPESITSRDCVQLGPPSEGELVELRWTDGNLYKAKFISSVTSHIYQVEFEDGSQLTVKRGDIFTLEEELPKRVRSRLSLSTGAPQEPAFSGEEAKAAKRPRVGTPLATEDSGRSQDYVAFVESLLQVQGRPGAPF

[7] = molecular target: T3, KDM4C (Homo sapiens, UniProt Q9H3R0); assay: ALPHA Screen demethylation assay; type: biochemical; conditions: IC50 (μM) KDM4C
T3 sequence (Q9H3R0 1-1056): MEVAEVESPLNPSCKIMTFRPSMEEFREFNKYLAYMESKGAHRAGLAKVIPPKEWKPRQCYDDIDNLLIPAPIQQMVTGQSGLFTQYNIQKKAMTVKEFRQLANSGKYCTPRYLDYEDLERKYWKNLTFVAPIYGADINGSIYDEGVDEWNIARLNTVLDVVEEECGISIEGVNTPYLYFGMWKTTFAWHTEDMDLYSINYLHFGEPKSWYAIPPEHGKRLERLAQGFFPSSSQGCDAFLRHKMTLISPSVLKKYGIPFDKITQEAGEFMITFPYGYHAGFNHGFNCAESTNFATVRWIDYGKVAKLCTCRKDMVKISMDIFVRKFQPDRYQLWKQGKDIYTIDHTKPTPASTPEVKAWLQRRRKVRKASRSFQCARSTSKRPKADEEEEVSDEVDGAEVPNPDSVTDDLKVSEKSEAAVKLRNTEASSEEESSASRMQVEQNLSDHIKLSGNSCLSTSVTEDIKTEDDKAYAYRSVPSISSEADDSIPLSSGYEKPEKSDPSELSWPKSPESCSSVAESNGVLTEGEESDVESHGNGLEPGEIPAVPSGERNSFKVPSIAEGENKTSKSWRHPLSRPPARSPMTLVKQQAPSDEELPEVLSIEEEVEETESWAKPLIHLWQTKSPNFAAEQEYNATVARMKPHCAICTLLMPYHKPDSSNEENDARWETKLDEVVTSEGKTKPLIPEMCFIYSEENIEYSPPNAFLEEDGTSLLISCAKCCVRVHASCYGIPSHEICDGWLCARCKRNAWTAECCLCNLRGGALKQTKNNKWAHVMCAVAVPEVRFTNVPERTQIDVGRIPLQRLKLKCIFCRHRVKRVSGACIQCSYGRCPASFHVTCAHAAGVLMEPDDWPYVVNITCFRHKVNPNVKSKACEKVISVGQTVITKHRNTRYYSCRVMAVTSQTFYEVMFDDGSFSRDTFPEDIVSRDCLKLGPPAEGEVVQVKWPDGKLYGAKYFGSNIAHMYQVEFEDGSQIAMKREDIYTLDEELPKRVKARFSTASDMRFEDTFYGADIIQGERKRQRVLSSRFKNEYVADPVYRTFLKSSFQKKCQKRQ

[8] = molecular target: T2, KDM4B; assay: Western blot of histone methyl marks in U2OS cells expressing KDM4B; conditions: 1uM, not on H3K4me3
[9] = system: aRMS xenograft; conditions: ref Kang et al., 2012; Lock et al., 2013; cited from earlier work
[10] = system: eRMS xenograft; conditions: ref Kang et al., 2012; Lock et al., 2013; cited from earlier work
[11] = system: Rh30 cells; assay: Crystal violet staining proliferation assay; type: cell-based; conditions: 5 days, at the concentrations that hit the targets

KDM5A, sequence (P29375 whole entry): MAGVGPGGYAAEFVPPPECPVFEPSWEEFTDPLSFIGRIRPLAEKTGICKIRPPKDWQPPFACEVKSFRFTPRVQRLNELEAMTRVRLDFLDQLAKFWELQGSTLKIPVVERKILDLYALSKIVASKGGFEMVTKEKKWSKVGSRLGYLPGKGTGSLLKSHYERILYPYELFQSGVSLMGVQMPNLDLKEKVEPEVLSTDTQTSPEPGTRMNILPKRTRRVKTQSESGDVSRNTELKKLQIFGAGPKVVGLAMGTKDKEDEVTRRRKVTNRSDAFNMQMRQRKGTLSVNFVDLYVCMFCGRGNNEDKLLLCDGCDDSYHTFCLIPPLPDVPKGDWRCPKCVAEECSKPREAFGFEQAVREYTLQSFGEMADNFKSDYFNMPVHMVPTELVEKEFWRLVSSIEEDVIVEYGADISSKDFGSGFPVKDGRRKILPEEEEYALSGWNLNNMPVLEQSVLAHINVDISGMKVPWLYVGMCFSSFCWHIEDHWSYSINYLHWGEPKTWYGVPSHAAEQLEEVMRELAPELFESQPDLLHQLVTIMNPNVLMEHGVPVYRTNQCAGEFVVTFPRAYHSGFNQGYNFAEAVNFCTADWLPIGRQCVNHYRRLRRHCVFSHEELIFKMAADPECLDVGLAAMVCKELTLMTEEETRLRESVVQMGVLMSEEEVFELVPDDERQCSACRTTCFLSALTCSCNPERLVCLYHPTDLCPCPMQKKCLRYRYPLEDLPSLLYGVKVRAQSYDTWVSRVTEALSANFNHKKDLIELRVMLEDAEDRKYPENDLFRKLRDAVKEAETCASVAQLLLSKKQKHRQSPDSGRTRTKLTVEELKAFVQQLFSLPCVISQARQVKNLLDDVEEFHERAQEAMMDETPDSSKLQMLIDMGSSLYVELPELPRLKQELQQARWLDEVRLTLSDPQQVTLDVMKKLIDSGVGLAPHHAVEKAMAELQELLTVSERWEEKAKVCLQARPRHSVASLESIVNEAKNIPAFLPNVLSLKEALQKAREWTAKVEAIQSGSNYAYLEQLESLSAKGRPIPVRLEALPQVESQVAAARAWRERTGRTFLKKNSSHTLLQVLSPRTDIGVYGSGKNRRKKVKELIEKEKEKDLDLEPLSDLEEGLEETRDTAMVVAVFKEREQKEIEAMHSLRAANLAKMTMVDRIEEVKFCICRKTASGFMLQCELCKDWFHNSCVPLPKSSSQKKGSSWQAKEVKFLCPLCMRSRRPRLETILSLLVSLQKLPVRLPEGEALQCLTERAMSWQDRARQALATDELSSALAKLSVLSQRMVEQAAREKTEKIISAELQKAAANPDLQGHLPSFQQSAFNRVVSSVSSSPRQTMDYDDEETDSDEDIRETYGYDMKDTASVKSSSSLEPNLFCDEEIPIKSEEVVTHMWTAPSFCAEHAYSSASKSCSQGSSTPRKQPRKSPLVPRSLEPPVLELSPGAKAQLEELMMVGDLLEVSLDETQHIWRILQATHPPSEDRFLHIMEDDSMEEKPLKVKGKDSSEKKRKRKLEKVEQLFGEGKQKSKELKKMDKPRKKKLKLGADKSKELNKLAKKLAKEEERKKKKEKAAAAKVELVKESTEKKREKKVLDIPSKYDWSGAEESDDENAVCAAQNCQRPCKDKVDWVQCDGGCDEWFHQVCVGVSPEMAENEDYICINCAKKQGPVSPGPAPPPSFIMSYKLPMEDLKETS

`CCNC(=O)c1noc(-c2cc(C(C)C)c(O)cc2O)c1-c1ccc(CN2CCOCC2)cc1` [NVP-AUY922] showed an inhibition at 15 µM [1] of under 15%.

`CN(NC(=O)CC(=O)NN(C)C(=S)c1ccccc1)C(=S)c1ccccc1` [STA-4783] showed an inhibition at 15 µM [1] of under 15%.

In the case of `COC1=C2C[C@@H](C)C[C@H](OC)[C@H](O)[C@@H](C)/C=C(\C)[C@H](OC(N)=O)[C@@H](OC)/C=C\C=C(/C)C(=O)NC(=CC1=O)C2=O` [geldanamycin], the “H3K9me3 and H3K36me3 levels” value [2] is reported as “induced an increase of H3K9me3 and H3K36me3”, the IC50 [3] is reported as under 1 µM and the “PAX3-FOXO1 expression (protein)” value [4] is reported as “reduced”. For the same compound, the H3K36me3 peaks decreased [5] was 213 peaks, the H3K36me3 peaks increased [5] was 1430 peaks and the “peaks of H3K9me3 induced” value ([5]; p < 0.05, logFC = 0.5) was “Four thousand four hundred six”. For the same compound, the “KDM4B activity in demethylating H3K9me3” value [6] was “greatly inhibited KDM4B activity”, the IC50 [7] was under 1 µM and the “KDM4B catalytic activity on its H3K9me3 and H3K36me3 substrates” value [8] was “blocked KDM4B catalytic activity”.

With `Cc1cc(C2CCCCC2)n(O)c(=O)c1` [ciclopirox] the “KDM4B activity in demethylating H3K9me3” value [6] was “greatly inhibited KDM4B activity”.

For `CC(C)c1cc(C(=O)N2Cc3ccc(CN4CCN(C)CC4)cc3C2)c(O)cc1O` [AT13387], the “PAX3-FOXO1 expression (protein)” value [4] is given as “reduced the expression of PAX3-FOXO1”, the aRMS xenograft growth [9] is given as “no effect” and the eRMS xenograft growth [10] is given as “no effect on either aRMS or eRMS xenograft growth”. The “KDM4B inhibitory activity (in words)” value [1] was “minimal effect on KDM4B activity; also recorded: did not inhibit KDM4B activity” and the inhibition at 15 µM [1] was under 15%.

In the case of `CCOC(=O)CCNc1cc(N2CCc3ccccc3CC2)nc(-c2ccccn2)n1` [GSK-J4], the anti-proliferative effect [11] is reported as “no anti-proliferative effect”.

Work on `CC1(C)CC(=O)c2c(C(F)(F)F)nn(-c3ccc(C(N)=O)c(N[C@H]4CC[C@H](OC(=O)CN)CC4)c3)c2C1` [SNX-5422] yielded an inhibition at 15 µM [1] of under 15%.

For `CC(C)c1cc(-c2n[nH]c(=O)n2-c2ccc3c(ccn3C)c2)c(O)cc1O` [Ganetespib], the aRMS xenograft growth [9] is given as “no effect”, the eRMS xenograft growth [10] is given as “no effect on either aRMS or eRMS xenograft growth” and the “KDM4B inhibitory activity (in words)” value [1] is given as “did not inhibit KDM4B activity”. It also gave an inhibition at 15 µM [1] of under 15%.

In the case of `CC[C@@H](C)Nc1cc(C(=O)N[C@H]2C[C@H]3CC[C@@H](C2)N3c2ccc(C(=O)C3CC3)cn2)c(C)cc1C(N)=O` [XL888], the “%Inhibition of KDM4B” value [1] is reported as under 15%.

With `CCOC(=O)c1ccnc(CNCC(=O)N(CC)CCN(C)C)c1` [KDM5-C70] the anti-proliferative effect [11] was “no anti-proliferative effect”.

With `CCc1c(O)cc(O)c(C(=O)c2ccc(OCCN3CCOCC3)c(OC)c2)c1CC(=O)N(CCOC)CCOC.Cl` [KW2478] the “%Inhibition of KDM4B” value [1] was under 15%.
